Experiment: xn = mol fraction of the nth substance listed
Details: 101 kPa, Liquid

CCC(C)O (stereo unspecified) [butan-2-ol] + CCCCO
Details	mass density, 323.15 K [kg/m3]	mass density, 328.15 K [kg/m3]	mass density, 333.15 K [kg/m3]	mass density, 338.15 K [kg/m3]	mass density, 343.15 K [kg/m3]	viscosity, 323.15 K [mPa·s]	viscosity, 328.15 K [mPa·s]	viscosity, 333.15 K [mPa·s]	viscosity, 338.15 K [mPa·s]	viscosity, 343.15 K [mPa·s]
x2 = 0.1008	–	776.706	771.968	767.116	762.161	–	1.506	1.327	1.178	1.055
x2 = 0.2005	–	777.468	772.822	768.057	763.194	–	1.525	1.349	1.201	1.08
x2 = 0.3002	–	778.208	773.649	768.985	764.213	–	1.543	1.369	1.224	1.102
x2 = 0.4006	–	778.887	774.407	769.83	765.15	–	1.56	1.387	1.242	1.121
x2 = 0.5004	–	779.553	775.144	770.644	766.048	1.773	1.576	1.405	1.258	1.138
x2 = 0.6005	784.456	780.198	775.861	771.436	766.918	1.782	1.59	1.421	1.275	1.155
x2 = 0.6999	785.021	780.817	776.534	772.174	767.729	1.79	1.602	1.434	1.29	1.171
x2 = 0.7989	785.535	781.386	777.165	772.85	768.484	1.795	1.612	1.447	1.302	1.184
x2 = 0.8988	786.04	781.936	777.765	773.53	769.214	1.798	1.621	1.457	1.315	1.197
